Results published in patent US6444685B1, “N-(4-sulfonylaryl)Cyclylamine 2-hydroxyethylamines as beta-3 adrenergic receptor agonists” (Wyeth, priority 2000, dated 2002).

Columns and labels:
[1] = target: T1, human β2-adrenergic receptor (Homo sapiens, UniProt P07550); experiment: cAMP accumulation (SPA) in CHO cells transfected with human β2 adrenergic receptor; type: cell-based; conditions: for beta-2 (IA) maximal response relative to isoproterenol: IA = % activity compound / % activity isoproterenol at 10^−5 M, CHO human β2 cells; for EC50: CHO cells transfected with human β2-AR, cAMP, 15 min incubation, 10^−8 to 10^−4 M, read-out: beta-2 EC50
T1 construct: expressed in transfected cells; host or cells: CHO cells
How it was run: (§1)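 CHO cell clones expressing 70–110 fmol/mg protein of receptor were pre-incubated 30 min at 37 °C, then treated 15 min at 37 °C with compound (10^−8 to 10^−4 M) in DMEM with 250 μM IBMX and 1 mM ascorbic acid. cAMP was read by SPA after acid stop. EC50 and IA were expressed relative to maximal 10^−5 M isoproterenol response.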

[2] = target: T2, human β1-adrenergic receptor (Homo sapiens, UniProt P08588); experiment: cAMP accumulation (SPA) in CHO cells transfected with human β1 adrenergic receptor; type: cell-based; conditions: for EC50: CHO cells transfected with human β1-AR, cAMP, 15 min incubation, 10^−8 to 10^−4 M, read-out: beta-1 EC50; for beta-1 (IA) maximal response relative to isoproterenol: IA = % activity compound / % activity isoproterenol at 10^−5 M, CHO human β1 cells
T2 construct: expressed in transfected cells; host or cells: CHO cells
How it was run: as §1

[3] = target: T3, human β3 adrenergic receptor (Homo sapiens, UniProt P13945); experiment: cAMP accumulation (SPA) in CHO cells transfected with human β3 adrenergic receptor; type: cell-based; conditions: for EC50: CHO cells expressing human β3-AR, cAMP, 30 min incubation, 10^−9 M to 10^−5 M, read-out: beta-3 EC50; for beta-3 (IA) maximal response relative to isoproterenol: IA = % activity compound / % activity isoproterenol at 10^−5 M, CHO human β3 cells
T3 construct: Full length β3 AR clones (402 amino acids) containing the last 6 amino acids of hβ3— AR are prepared; expressed in transfected cells; host or cells: CHO cells
How it was run: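 CHO cells expressing human β3-AR (70–110 fmol/mg protein) treated with compound at 10^−9 to 10^−5 M in DMEM with 250 μM IBMX and 1 mM ascorbic acid, 30 min, 37 °C. cAMP measured by SPA; EC50 derived, and intrinsic activity expressed relative to the maximal response of 10^−5 M isoproterenol.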

T2 sequence (P08588 whole entry): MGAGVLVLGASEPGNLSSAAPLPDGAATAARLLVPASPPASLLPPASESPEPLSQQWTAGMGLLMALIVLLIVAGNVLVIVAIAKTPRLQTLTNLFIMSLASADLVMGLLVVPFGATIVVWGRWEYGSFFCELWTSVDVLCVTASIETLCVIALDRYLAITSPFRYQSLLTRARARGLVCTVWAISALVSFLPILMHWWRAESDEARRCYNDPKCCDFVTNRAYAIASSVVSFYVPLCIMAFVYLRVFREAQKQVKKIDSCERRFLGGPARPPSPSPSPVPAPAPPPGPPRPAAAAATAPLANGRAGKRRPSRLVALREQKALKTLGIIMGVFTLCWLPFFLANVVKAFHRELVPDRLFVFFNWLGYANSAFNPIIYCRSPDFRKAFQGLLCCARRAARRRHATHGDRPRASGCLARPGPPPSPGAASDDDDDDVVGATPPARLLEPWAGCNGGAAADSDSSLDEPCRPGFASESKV
T3 sequence (P13945 whole entry): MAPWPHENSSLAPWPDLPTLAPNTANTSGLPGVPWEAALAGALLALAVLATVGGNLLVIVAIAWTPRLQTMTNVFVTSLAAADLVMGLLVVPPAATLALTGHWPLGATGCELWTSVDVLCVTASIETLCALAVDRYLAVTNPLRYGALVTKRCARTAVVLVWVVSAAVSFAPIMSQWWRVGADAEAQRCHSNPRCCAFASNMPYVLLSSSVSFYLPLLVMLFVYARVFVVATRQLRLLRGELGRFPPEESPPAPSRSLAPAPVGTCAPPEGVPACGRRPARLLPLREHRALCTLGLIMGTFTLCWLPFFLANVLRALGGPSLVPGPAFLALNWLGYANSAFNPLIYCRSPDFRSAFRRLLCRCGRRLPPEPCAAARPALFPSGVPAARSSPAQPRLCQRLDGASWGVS
T1 sequence (P07550 whole entry): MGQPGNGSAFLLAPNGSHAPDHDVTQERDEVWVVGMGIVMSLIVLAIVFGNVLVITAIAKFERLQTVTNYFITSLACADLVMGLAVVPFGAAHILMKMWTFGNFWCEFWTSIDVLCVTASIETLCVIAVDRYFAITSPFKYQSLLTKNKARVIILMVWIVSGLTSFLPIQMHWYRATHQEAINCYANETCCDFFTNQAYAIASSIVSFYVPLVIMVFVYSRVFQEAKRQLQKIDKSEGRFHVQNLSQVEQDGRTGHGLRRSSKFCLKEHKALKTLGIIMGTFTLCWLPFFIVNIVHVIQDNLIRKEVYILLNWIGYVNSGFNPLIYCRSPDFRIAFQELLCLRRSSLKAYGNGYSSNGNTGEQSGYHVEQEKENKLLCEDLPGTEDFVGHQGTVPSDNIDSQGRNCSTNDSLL

| beta-2 (IA) maximal response relative to isoproterenol [1] | EC50 [2] [µM] | beta-1 (IA) maximal response relative to isoproterenol [2] | melting point [°C] | EC50 [3] [µM] | beta-3 (IA) maximal response relative to isoproterenol [3] | EC50 [1] [µM] | Compound |
| --- | --- | --- | --- | --- | --- | --- | --- |
| (0.17) | 2.7 | (0.44) | 89 to 91 | 0.025 | (0.95) | – | CN1CCN(S(=O)(=O)c2ccc(N3CCC(NC[C@H](O)c4ccc(O)c(NS(C)(=O)=O)c4)CC3)cc2)CC1 [Example 66, N-(2-Hydroxy-5-{(1R)-1-hydroxy-2-[(1-{4-[(4-methylpiperazin-1-yl)sulfonyl]phenyl}piperidin-4-yl)amino]ethyl}phenyl)methanesulfonamide] |
| (0.2) | 1.9 | (0.3) | 85 to 90 | 0.001 | (1.1) | – | CCOC(=O)CN(Cc1cc(F)ccc1F)S(=O)(=O)c1ccc(N2CCC(NC[C@H](O)c3ccc(O)c(NS(C)(=O)=O)c3)CC2)cc1 [Example 61, Ethyl {(2,5-Difluorobenzyl)[(4-{4-[((2R)-2-hydroxy-2-{4-hydroxy-3-[(methyl-sulfonyl)amino]phenyl}ethyl)amino]piperidin-1-yl}phenyl)sulfonyl]amino}acetate] |
| (0.65) | 0.96 | (0.48) | 113 to 115 | 0.006 | (1) | 0.48 | CC(C)(C)OC(=O)CNS(=O)(=O)c1ccc(N2CCC(NC[C@H](O)c3ccc(O)c(NS(C)(=O)=O)c3)CC2)cc1 [Example 52, tert-Butyl 2-{[(4-{4-[((2R)-2-hydroxy-2-{4-hydroxy-3-[(methylsulfonyl)amino]-phenyl}ethyl)amino]-1-piperidinyl}phenyl)sulfonyl]amino}acetate] |
| (0.2) | 7.8 | (0.52) | 110 to 115 | 0.015 | (0.98) | 12 | COC(=O)N(CC(=O)OC(C)(C)C)S(=O)(=O)c1ccc(N2CCC(NC[C@H](O)c3ccc(O)c(NS(C)(=O)=O)c3)CC2)cc1 [Example 59, tert-Butyl [[(4-{4-[((2R)-2-Hydroxy-2-{4-hydroxy-3-[(methylsulfonyl)amino]-phenyl}ethyl)amino]piperidin-1-yl}phenyl)sulfonyl](methoxycarbonyl)-amino]acetate] |
| (0.31) | 5 | (0.32) | 100 to 102 | 0.009 | (1) | 5 | CCCCNC(=O)NS(=O)(=O)c1ccc(N2CCC(NC[C@H](O)c3ccc(O)c(NS(C)(=O)=O)c3)CC2)cc1 [Example 62, 1-[4-({[(Butylamino)carbonyl]amino}sulfonyl)phenyl]-4-[((2)-2-hydroxy-2-{4-hydroxy-3-[(methylsulfonyl)amino]phenyl}ethyl)amino]piperidine] |
| (0.37) | 13 | (0.23) | 52 to 58 | 0.001 | (1) | 0.16 | CC(C)OC(=O)C1CCCN1S(=O)(=O)c1ccc(N2CCC(NCC(O)c3ccc(O)c(NS(C)(=O)=O)c3)CC2)cc1 (centres unmarked) [Example 15, 1-(4-{4-[2-Hydroxy-2-(4-hydroxy-3-methanesulfonylamino-phenyl)-ethylamino]-piperidin-1-yl}-benzenesulfonyl)-pyrrolidine-2-carboxylic Acid Isopropyl Ester] |
| (0.68) | 1 | (0.35) | 78 to 81 | 0.033 | (0.88) | 1 | CS(=O)(=O)Nc1cc([C@@H](O)CNC2CCN(c3ccc(S(=O)(=O)NCCO)cc3)CC2)ccc1O [Example 24, N-(2-Hydroxyethyl)-4-{4-[(2R)-2-hydroxy-2-(4-hydroxy-3-methanesulfonylamino-phenyl)-ethylamino]-piperidin-1-yl)-benzenesulfonamide] |
| (0.22) | – | (0.11) | 91 to 92 | 0.004 | (1.1) | 5.9 | CCOC(=O)CN1CCN(S(=O)(=O)c2ccc(N3CCC(NC[C@H](O)c4ccc(O)c(NS(C)(=O)=O)c4)CC3)cc2)CC1 [Example 64, Ethyl {4-((4-{4-[((2R)-2-Hydroxy-2-{4-hydroxy-3-[(methylsulfonyl)amino]-phenyl}ethyl)amino]piperidin-1-yl}phenyl)sulfonyl]piperazin-1-yl}acetate] |
| (0.46) | 1 | (0.47) | 93 to 95 | 0.006 | (0.93) | 3.2 | CC#CCC(CC#CC)(C(=O)OC(C)(C)C)S(=O)(=O)c1ccc(N2CCC(NC[C@H](O)c3ccc(O)c(NS(C)(=O)=O)c3)CC2)cc1 [Example 47, 2-(2-Butynyl)-2-[(4-{4-[((2R)-2-hydroxy-2-{4-hydroxy-3-[(methylsulfonyl)amino]-phenyl}ethyl)amino]-1-piperidinyl}phenyl)sulfonyl]-4-hexynoicacid tert-Butyl Ester] |
| (0.82) | 0.06 | (0.88) | 62 to 69 | 0.001 | (1) | 0.64 | CS(=O)(=O)Nc1cc([C@@H](O)CNC2CCN(c3ccc(S(=O)(=O)N4CCC[C@@H]4C(=O)OCc4ccccc4)cc3)CC2)ccc1O [Example 21, (2R)-1-(4-{4-[(2R)-2-Hydroxy-2-(4-hydroxy-3-methanesulfonylamino-phenyl)-ethylamino]-piperidin-1-yl}-benzenesulfonyl)-pyrrolidine-2-carboxylic Acid Benzyl Ester] |
| (0.53) | 0.64 | (1) | 71 to 75 | 0.001 | (1.3) | 0.17 | CCCCNS(=O)(=O)c1ccc(N2CCC(NC[C@H](O)c3ccc(O)c(NS(C)(=O)=O)c3)CC2)cc1 [Example 14, N-Butyl-4-{4-[(2R)-2-hydroxy-2-(4-hydroxy-3-methanesulfonylamino-phenyl)-ethylamino]-piperidin-1-yl}-benzenesulfonamide] |
| (0.31) | 3.6 | (0.65) | 98 to 105 | 0.011 | (1) | 3.9 | CCOC(=O)NC(=O)CNS(=O)(=O)c1ccc(N2CCC(NC[C@H](O)c3ccc(O)c(NS(C)(=O)=O)c3)CC2)cc1 [Example 58, Ethyl 2-{[(4-{4-[((2R)-2-Hydroxy-2-{4-hydroxy-3-((methylsulfonyl)amino]-phenyl}ethyl)amino]piperidin-1-yl}phenyl)sulfonyl]amino}acetylcarbamate] |
| (0.89) | 1.32 | (0.68) | 94 to 95 | 0.016 | (1) | 1.67 | CCCCN(CC(=O)OCC)S(=O)(=O)c1ccc(N2CCC(NC[C@H](O)c3ccc(O)c(NS(C)(=O)=O)c3)CC2)cc1 [Example 23, [Butyl-(4-{4-[(2R)-2-hydroxy-2-(4-hydroxy-3-methanesulfonylamino-phenyl)-ethylamino]-piperidin-1-yl}-benzenesulfonyl)-amino]-acetic Acid Ethyl Ester] |

| Compound | beta-2 (IA) maximal response relative to isoproterenol [1] | EC50 [2] [µM] | beta-1 (IA) maximal response relative to isoproterenol [2] | melting point [°C] | EC50 [3] [µM] | beta-3 (IA) maximal response relative to isoproterenol [3] | EC50 [1] [µM] |
| --- | --- | --- | --- | --- | --- | --- | --- |
| CC(C)(C)OC(=O)CN(CC(=O)OC(C)(C)C)S(=O)(=O)c1ccc(N2CCC(NC[C@H](O)c3ccc(O)c(NS(C)(=O)=O)c3)CC2)cc1 [Example 54, tert-Butyl 2-{[2-(tert-butoxy)-2-oxoethyl][(4-{4-[((2R)-2-hydroxy-2-{4-hydroxy-3-[(methylsulfonyl)amino]phenyl}ethyl)amino]-1-piperidinyl}-phenyl)sulfonyl]amino}acetate] | (0.42) | 2.3 | (0.33) | 164 to 166 | 0.014 | (1.2) | 12 |
